Experimental data published in ChEMBL document CHEMBL1268968, “Lupane-type triterpenoids from the steamed leaves of Acanthopanax koreanum and their inhibitory effects on the LPS-stimulated pro-inflammatory cytokine production in bone marrow-derived dendritic cells” (Bioorg Med Chem Lett, 2010).

Key:
[1] = Antiinflammatory activity in C57BL/6 mouse BMDCs assessed as inhibition of LPS-stimulated TNFalpha production at 50 uM treated 1 hr before LPS challenge measured 18 hrs post stimulation by ELISA; format: functional, BMDC
[2] = Antiinflammatory activity in C57BL/6 mouse BMDCs assessed as inhibition of LPS-stimulated IL12 production at 50 uM treated 1 hr before LPS challenge measured 18 hrs post stimulation by ELISA; format: functional, BMDC
[3] = Antiinflammatory activity in C57BL/6 mouse BMDCs assessed as inhibition of LPS-stimulated IL6 production at 50 uM treated 1 hr before LPS challenge measured 18 hrs post stimulation by ELISA; format: functional; conditions: C57BL/6, BMDC
[4] = Toxicity in C57BL/6 mouse BMDCs at 50 uM; format: cell-based; conditions: bmdc

| Compound | inhibition (INH) [1] [%] | inhibition (INH) [2] [%] | inhibition at 50 µM [3] [%] | Activity [4] |
| --- | --- | --- | --- | --- |
| COC(OC)[C@H](C)[C@@H]1CC[C@]2(C(=O)O)CC[C@]3(C)[C@H](CC[C@@H]4[C@@]5(C)CC[C@@H](O)[C@@](C)(C(=O)O)[C@@H]5CC[C@]43C)[C@@H]12 | 64.7 | 94.2 | 63.6 | Non-toxic |
| C=C(C)[C@@H]1CC[C@]2(C(=O)O[C@@H]3O[C@H](CO[C@@H]4O[C@H](CO)[C@@H](O)[C@H](O)[C@H]4O)[C@@H](O)[C@H](O)[C@H]3O)CC[C@]3(C)[C@H](CC[C@@H]4[C@@]5(C)CC[C@@H](O)[C@@](C)(C(=O)O)[C@@H]5CC[C@]43C)[C@@H]12 | – | <50 | – | Non-toxic |
| C=C(C)[C@@H]1CC[C@]2(C(=O)O)CC[C@]3(C)[C@H](C[C@@H](O)[C@@H]4[C@@]5(C)CC[C@@H](O[C@@H]6O[C@H](CO)[C@@H](O)[C@H](O)[C@H]6O)C(C)(C)[C@@H]5CC[C@]43C)[C@@H]12 | – | <50 | – | Non-toxic |
| C=C(C)[C@@H]1CC[C@]2(C(=O)O)CC[C@]3(C)[C@H](CC[C@@H]4[C@@]5(C)CC[C@@H](O)[C@@](C)(C(=O)O)[C@@H]5CC[C@]43C)[C@@H]12 | – | <50 | – | Non-toxic |
| C=C(C)[C@@H]1CC[C@]2(C(=O)O)CC[C@]3(C)[C@H](C[C@@H](O)[C@@H]4[C@@]5(C)CC[C@@H](O)[C@@](C)(C=O)[C@@H]5CC[C@]43C)[C@@H]12 | – | 57.6 | – | Non-toxic |
| C=C(C)[C@@H]1CC[C@]2(C(=O)O)CC[C@]3(C)[C@H](C[C@@H](O)[C@@H]4[C@@]5(C)CC[C@@H](O)[C@@](C)(CO)[C@@H]5CC[C@]43C)[C@@H]12 | – | <50 | – | Non-toxic |
| C=C(C)[C@@H]1CC[C@]2(C(=O)O[C@@H]3O[C@H](CO[C@@H]4O[C@H](CO)[C@@H](O[C@@H]5O[C@@H](C)[C@H](O)[C@@H](O)[C@H]5O)[C@H](O)[C@H]4O)[C@@H](O)[C@H](O)[C@H]3O)CC[C@]3(C)[C@H](CC[C@@H]4[C@@]5(C)CC[C@@H](O)[C@@](C)(C(=O)O)[C@@H]5CC[C@]43C)[C@@H]12 [ACANKOREOSIDE A] | – | <50 | – | Non-toxic |
| C=C(C)[C@@H]1CC[C@]2(C(=O)O[C@@H]3O[C@H](CO[C@@H]4O[C@H](CO)[C@@H](O[C@H]5O[C@@H](C)[C@H](O)[C@@H](O)[C@H]5O)[C@H](O)[C@H]4O)[C@@H](O)[C@H](O)[C@H]3O)CC[C@]3(C)[C@H](C[C@@H](O)[C@@H]4[C@@]5(C)CC[C@@H](O)[C@@](C)(C=O)[C@@H]5CC[C@]43C)[C@@H]12 [ACANKOREOSIDE D] | – | <50 | – | Non-toxic |
| C=C(C)[C@@H]1CC[C@]2(C(=O)O[C@@H]3O[C@H](CO[C@@H]4O[C@H](CO)[C@@H](O[C@H]5O[C@@H](C)[C@H](O)[C@@H](O)[C@H]5O)[C@H](O)[C@H]4O)[C@@H](O)[C@H](O)[C@H]3O)CC[C@]3(C)[C@H](C[C@@H](O)[C@@H]4[C@@]5(C)CC[C@@H](O)C(C)(C)[C@@H]5CC[C@]43C)C12 (some centres undefined) [ACANTRIFOSIDE A] | – | <50 | – | Non-toxic |
| C=C(C)[C@@H]1CC[C@]2(C(=O)O)CC[C@]3(C)[C@H](C[C@@H](O)[C@@H]4[C@@]5(C)CC[C@@H](O)C(C)(C)[C@@H]5CC[C@]43C)[C@@H]12 [IMPRESSIC ACID] | 67.9 | 62.6 | – | Non-toxic |
| C[S+]([O-])c1ccc(-c2nc(-c3ccc(F)cc3)c(-c3ccncc3)[nH]2)cc1 (centres undefined) [SB-203580] | – | 84.3 | – | – |
